Laboratory results published in patent US20130217664A1, “NOVEL COMPOUNDS USEFUL FOR THE TREATMENT OF DEGENERATIVE AND INFLAMMATORY DISEASES” (priority 2012, published 2013).

These compounds were tested against T1, human JAK1 (Homo sapiens, UniProt P23458) (assay: JAK1 inhibition assay (polyGT substrate / Ulight-JAK1 peptide)). Details: recombinant human JAK1 catalytic domain; polyGT or Ulight-JAK1 peptide assay.
T1 construct: catalytic domain, amino acids 866-1154; catalog number PV4774; purchased Invitrogen PV4774
T1 sequence (P23458 866-1154): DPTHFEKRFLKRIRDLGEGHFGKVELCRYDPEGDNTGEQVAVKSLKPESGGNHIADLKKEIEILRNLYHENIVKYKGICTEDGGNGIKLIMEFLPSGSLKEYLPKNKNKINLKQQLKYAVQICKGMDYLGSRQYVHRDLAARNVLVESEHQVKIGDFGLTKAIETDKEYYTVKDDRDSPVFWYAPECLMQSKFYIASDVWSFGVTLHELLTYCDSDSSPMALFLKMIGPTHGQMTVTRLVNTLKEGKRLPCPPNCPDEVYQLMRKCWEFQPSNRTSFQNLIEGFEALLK
Assay type: biochemical
Description: 1.1 JAK1 Inhibition Assay
1.1.1 JAK1 Assay polyGT Substrate
After 45 min at 30° C., reactions are stopped by adding of 25 μL/well of 150 mM phosphoric acid. […] Plates are washed 6 times with 300 μL per well of a 75 mM phosphoric acid solution and the bottom of the plates is sealed. 40 μL/well of Microscint-20 is added, the top of the plates is sealed and readout is performed using the Topcount (Perkin Elmer). Kinase activity is calculated by subtracting counts per min (cpm) obtained in the presence of a positive control inhibitor (10 μM staurosporine) from cpm obtained in the presence of vehicle. The ability of a test compound to inhibit this activity is determined as:
Percentage inhibition=((cpm determined for sample with test compound present−cpm determined for sample with positive control inhibitor)divided by(cpm determined in the presence of vehicle−cpm determined for sample with positive control inhibitor))*100.
Dose dilution series are prepared for the compounds enabling the testing of dose-response effects in the JAK1 assay and the calculation of the IC50 for each compound.
1.1.2 JAK1 Ulight-JAK1 Peptide Assay
After 60 min at room temperature, reactions were stopped by adding 20 μL/well of detection mixture (1× detection buffer (Perkin Elmer, catalog number CR97-100C), 0.5 nM Europium-anti-phosphotyrosine (PT66) (Perkin Elmer, catalog number AD0068), 10 mM EDTA). […] Kinase activity was calculated by subtracting relative fluorescence units (RFU) obtained in the presence of a positive control inhibitor (10 μM staurosporine) from RFU obtained in the presence of vehicle. The ability of a test compound to inhibit this activity was determined as:
Percentage inhibition=((RFU determined for sample with test compound present−RFU determined for sample with positive control inhibitor)divided by(RFU determined in the presence of vehicle−RFU determined for sample with positive control inhibitor))*100.
Dose dilution series were prepared for the compounds enabling the testing of dose-response effects in the JAK1 assay and the calculation of the IC50 for the compound. Each compound is routinely tested at concentration of 20 μM followed by a 1/5 serial dilution, 10 points in a final concentration of 1% DMSO. […] The data are expressed as the average IC50 from the assays±standard error of the mean.

Row | SMILES | IC50 [nM]
1 | CCOC(=O)c1ccc(N(CC)c2cc3c(cn2)ncn3C)cc1 [Compound 7, 4-[Ethyl-(1-methyl-1H-imidazo[4,5-c]pyridin-6-yl)-amino]-benzoic acid ethyl ester] | > 1000
2 | CCc1cc(-c2c(C)nn(C)c2C)ccc1N(C)c1cc2c(cn1)ncn2C [Compound 138, N-(2-ethyl-4-(1,3,5-trimethyl-1H-pyrazol-4-yl)phenyl)-N,1-dimethyl-1H-imidazo[4,5-c]pyridin-6-amine] | 101 to 500
3 | CCc1cc(-c2cn(C)cn2)ccc1N(C)c1cc2c(cn1)ncn2C [Compound 145, N-(2-ethyl-4-(1-methyl-1H-imidazol-4-yl)phenyl)-N,1-dimethyl-1H-imidazo[4,5-c]pyridin-6-amine] | 0.01 to 100
4 | CCc1cc(CNC2CCS(=O)(=O)CC2)ccc1N(C)c1cc2c(cn1)ncn2C [Compound 146, {4-[(1,1-Dioxo-hexahydrothiopyran-4-ylamino)-methyl]-2-ethyl-phenyl}-methyl-(1-methyl-1H-imidazo[4,5-c]pyridin-6-yl)-amine] | 0.01 to 100
5 | CCc1cc(C(=O)NC2CCCN(C)C2)ccc1N(C)c1cc2c(cn1)ncn2C (stereo not drawn) [Compound 152, 3-ethyl-4-(methyl(1-methyl-1H-imidazo[4,5-c]pyridin-6-yl)amino)-N-(1-methylpiperidin-3-yl)benzamide] | 0.01 to 100
6 | CCc1cc(CNCC(C)(C)O)ccc1N(C)c1cc2c(cn1)ncn2C [Compound 169, 1-(3-ethyl-4-(methyl(1-methyl-1H-imidazo[4,5-c]pyridin-6-yl)amino)benzylamino)-2-methylpropan-2-ol] | 0.01 to 100
7 | CCc1cc(C(=O)NC2CN(C(=O)OC(C)(C)C)C2)ccc1N(C)c1cc2c(cn1)ncn2C [Compound 170, tert-butyl 3-(3-ethyl-4-(methyl(1-methyl-1H-imidazo[4,5-c]pyridin-6-yl)amino)benzamido)azetidine-1-carboxylate] | 501 to 1000
8 | CCc1cc(C(=O)NC2COC2)ccc1N(C)c1cc2c(cn1)ncn2C [Compound 171, 3-ethyl-4-(methyl(1-methyl-1H-imidazo[4,5-c]pyridin-6-yl)amino)-N-(oxetan-3-yl)benzamide] | 101 to 500
9 | CCc1cc(Cn2ccnc2C)ccc1N(C)c1cc2c(cn1)ncn2C [Compound 173, N-(2-Ethyl-4-((2-methyl-1H-imidazol-1-yl)methyl)phenyl)-N,1-dimethyl-1H-imidazo[4,5-c]pyridin-6-amine] | 0.01 to 100
10 | CCc1cc(C(=O)NC2CNC2)ccc1N(C)c1cc2c(cn1)ncn2C [Compound 174, N-(azetidin-3-yl)-3-ethyl-4-(methyl(1-methyl-1H-imidazo[4,5-c]pyridin-6-yl)amino)benzamide] | 101 to 500
11 | CCc1cc(C(=O)NC2CN(S(C)(=O)=O)C2)ccc1N(C)c1cc2c(cn1)ncn2C [Compound 175, 3-Ethyl-4-(methyl(1-methyl-1H-imidazo[4,5-c]pyridin-6-yl)amino)-N-(1-(methylsulfonyl)azetidin-3-yl)benzamide] | 501 to 1000
12 | CCc1cc(C2CCN(C(=O)OC(C)(C)C)CC2)ccc1N(C)c1cc2c(cn1)ncn2C [Compound 180, tert-butyl 4-(3-ethyl-4-(methyl(1-methyl-1H-imidazo[4,5-c]pyridin-6-yl)amino)phenyl)piperidine-1-carboxylate] | 101 to 500
13 | CCc1cc(-c2n[nH]c(C)n2)ccc1N(C)c1cc2c(cn1)ncn2C [Compound 183, N-(2-ethyl-4-(5-methyl-1H-1,2,4-triazol-3-yl)phenyl)-N,1-dimethyl-1H-imidazo[4,5-c]pyridin-6-amine] | 0.01 to 100
14 | CCc1cc(-c2cnc(N3CCOCC3)nc2)ccc1N(C)c1cc2c(cn1)ncn2C [Compound 184, N-(2-Ethyl-4-(2-morpholinopyrimidin-5-yl)phenyl)-N,1-dimethyl-1H-imidazo[4,5-d]pyridin-6-amine] | 101 to 500
15 | CCc1cc(C(=O)O)ccc1N(C)c1cc2c(cn1)ncn2C [Compound 185, 3-Ethyl-4-(methyl(1-methyl-1H-imidazo[4,5-c]pyridin-6-yl)amino)benzoic acid] | > 1000
16 | CCc1cc(C2CCNCC2)ccc1N(C)c1cc2c(cn1)ncn2C [Compound 187, N-(2-Ethyl-4-(piperidin-4-yl)phenyl)-N,1-dimethyl-1H-imidazo[4,5-c]pyridin-6-amine] | 0.01 to 100
17 | CCc1cc(-c2n[nH]c(C3CC3)n2)ccc1N(C)c1cc2c(cn1)ncn2C [Compound 188, N-(4-(5-cyclopropyl-1H-1,2,4-triazol-3-yl)-2-ethylphenyl)-N,1-dimethyl-1H-imidazo[4,5-c]pyridin-6-amine] | 101 to 500
18 | CCNC(=O)NCc1ccc(N(C)c2cc3c(cn2)ncn3C)c(CC)c1 [Compound 192, 1-Ethyl-3-(3-ethyl-4-(methyl(1-methyl-1H-imidazo[4,5-c]pyridin-6-yl)amino)benzyl)urea] | 0.01 to 100
19 | CC(NC(=O)OC(C)(C)C)c1ccc(N(C)c2cc3c(cn2)ncn3C)c(F)c1 (stereo not drawn) [Compound 268, tert-Butyl (1-(3-fluoro-4-(methyl(1-methyl-1H-imidazo[4,5-c]pyridin-6-yl)amino)phenyl)ethyl)carbamate] | > 1000
20 | CC(=O)N1CC(c2ccc(N(C)c3cc4c(cn3)ncn4C)c(F)c2)C1 [Compound 278, 1-(3-{3-Fluoro-4-[methyl-(1-methyl-M-imidazo[4,5-c]pyridin-6-yl)-amino]-phenyl}-azetidin-1-yl)-ethanone] | 501 to 1000
21 | CN(c1cc2c(cn1)ncn2C)c1ccc(C2CCN(C(=O)OC(C)(C)C)CC2)cc1F [Compound 279, 4-{3-Fluoro-4-[methyl-(1-methyl-M-imidazo[4,5-c]pyridin-6-yl)-amino]-phenyl}-piperidine-1-carboxylic acid tert-butyl ester] | > 1000
22 | CN(c1cc2c(cn1)ncn2C)c1ccc(C2=CCN(C(=O)OC(C)(C)C)CC2)cc1OC(F)F [Compound 281, 4-{3-Difluoromethoxy-4-[methyl-(1-methyl-1H-imidazo[4,5-c]pyridin-6-yl)-amino]-phenyl}-3,6-dihydro-2H-pyridine-1-carboxylic acid tert-butyl ester] | 101 to 500
23 | Cn1cnc2cnc(N(CC3CC3)c3ccc(C#N)cc3F)cc21 [Compound 282, 4-[Cyclopropylmethyl-(1-methyl-1H-imidazo[4,5-c]pyridin-6-yl)-amino]-3-fluoro-benzonitrile] | > 1000
24 | CCc1ccccc1N(CCC#N)c1cc2c(cn1)ncn2C [Compound 285, 3-[(2-Ethyl-phenyl)-(1-methyl-1H-imidazo[4,5-c]pyridin-6-yl)-amino]-propionitrile] | 101 to 500
25 | CN(c1cc2c(cn1)ncn2C)c1ccc(C2CCN(C(=O)OC(C)(C)C)CC2)cc1OC(F)F [Compound 286, 4-{3-Difluoromethoxy-4-[methyl-(1-methyl-1H-imidazo[4,5-c]pyridin-6-yl)-amino]-phenyl}-piperidine-1-carboxylic acid tert-butyl ester] | 101 to 500
26 | CCc1ccccc1N(C)c1cc2c(cn1)ncn2C1CC1 [Compound 296, 1-cyclopropyl-N-(2-ethylphenyl)-N-methyl-1H-imidazo[4,5-c]pyridin-6-amine] | 501 to 1000
27 | CCc1ccccc1N(C)c1cc2c(cn1)ncn2CC [Compound 297, 1-ethyl-N-(2-ethylphenyl)-N-methyl-1H-imidazo[4,5-c]pyridin-6-amine] | 501 to 1000
